One may read the solubility (kinetic) as solubility judged after dilution from a stock solution rather than from solid.

Molecules are shown by their SMILES. In brackets after ≈: the same amount, converted by molar mass.

For the data set the following is noted: buffer; pH 7.4; 200.0 µM.
As for `Cc1ccccc1/C=C\c1nc2ccccc2c(=O)[nH]1`, the kinetic solubility is 1.2 µg/mL (≈ 4.57 µM). As for `CCOc1ccc(NC(=S)N2CCCCCC2)cc1`, the figure is above 41.8 µg/mL; as for `Cc1c(C(=O)NC2CCCC2)oc2ccccc12`, 33.9 µg/mL (≈ 139 µM); as for `CC1CN(S(=O)(=O)c2cc(C(=O)N3CCCCC3C)ccc2Cl)CC(C)O1` (stereo not given), above 62.2 µg/mL. As for `Clc1ccc(OCCCCCN2CCOCC2)cc1`, the figure is 26.6 µg/mL (≈ 93.7 µM); as for `O=C(O)C(=O)O.c1ccc2c(c1)CCN(C1CCCCC1)C2`, 44 µg/mL; as for `CCSc1nc2sc3c(c2c(=O)[nH]1)CC(C)(C)OC3`, 3.1 µg/mL (≈ 10.5 µM). The compound `CCNC(=O)C12CCC(C)(c3nc4cc(C)c(C)cc4nc31)C2(C)C` (stereo not given) returned a solubility (kinetic) of 47.4 µg/mL (≈ 140 µM). Against the preceding compound, the solubility kinetic is about 15-fold higher.

As for `CC(=O)Nc1ccc(S(=O)(=O)Nc2nccc(C)n2)cc1`, the solubility (kinetic) was above 46 µg/mL. In turn, `COc1ccc(C(=O)OCC(=O)Nc2ccc(Cl)cn2)cc1` displayed a kinetic solubility of 1.2 µg/mL (≈ 3.74 µM). As for `O=C1OC(c2ccccc2)=N/C1=C\C=C\c1ccco1`, the figure is 2 µg/mL (≈ 7.54 µM); as for `CC(C)Cn1c(N)c(C(=O)COC(=O)c2cc3ccccc3cc2O)c(=O)n(C)c1=O`, 4.5 µg/mL (≈ 10.6 µM). As to `CCSc1nc(O)cc(=O)n1CC`, the kinetic solubility is above 30 µg/mL.

Compound `O=C(Nc1ccccc1)Nc1ccc2c(c1)CCC2` showed a solubility (kinetic) of 0.4 µg/mL (≈ 1.59 µM). With `O=C(CCc1c[nH]c2ccccc12)Nc1ncccc1O`, the solubility (kinetic) is above 42.2 µg/mL.

The compound `O=C(O)c1ccc(Nc2ccc3nonc3c2[N+](=O)[O-])cc1` yielded a solubility (kinetic) of 44.9 µg/mL (≈ 150 µM). For the compound `CSc1cccc(NC(N)=O)c1`, the kinetic solubility stood at 25.1 µg/mL (≈ 138 µM).

In turn, `CCc1cc(C(=O)c2ccc(OC)cc2)c(NC(=O)CN2CCCC2)s1` came in with a kinetic solubility of 5.9 µg/mL (≈ 15.8 µM). As for `O=c1c2cc([N+](=O)[O-])ccc2nc2n1CCC2`, the figure is above 34.7 µg/mL; as for `CS(=O)(=O)NCC(c1cccnc1)N1CCN(c2ccccc2F)CC1` (stereo not given), 55.4 µg/mL (≈ 146 µM); as for `O=C(CNC(=O)c1ccc(Cl)cc1)N/N=C/c1cccnc1`, above 47.5 µg/mL. `CC(C)c1ccccc1NC(=O)C1C2C=CC(C2)C1C(=O)O` (stereo not given) came in with a solubility (kinetic) of 42.1 µg/mL (≈ 141 µM). As for `CN(C)C(=O)CSc1ccc(S(=O)(=O)N2CCCC2)cn1`, the figure is above 49.4 µg/mL. As for `CCOC(=O)Cn1cnc2scc(-c3ccc(C)c(C)c3)c2c1=O`, the figure is 22.5 µg/mL (≈ 65.7 µM). `CCNC(=O)CSc1nc(-c2ccc(F)cc2)cs1`: the kinetic solubility is 42.8 µg/mL (≈ 144 µM). As to `CC1CCN(C(=O)COC(=O)c2cccs2)CC1`, the solubility (kinetic) is above 40.1 µg/mL. As for `Cc1ccccc1C(=O)NC1CCN(CC(=O)NCc2ccccc2)CC1`, the figure is 47.7 µg/mL (≈ 131 µM). As for `Cc1ccc2cccc(OCCCOc3ccccc3CO)c2n1`, the figure is 38.1 µg/mL (≈ 118 µM). As for `COc1ccccc1C(=O)NC(CCSC)C(=O)NC1CC1` (stereo not given), the figure is above 48.4 µg/mL.

As for `C#CC[N+](C)(C)CC#Cc1ccc(C)cc1.[Br-]`, the solubility (kinetic) was above 43.8 µg/mL.

Turning to `CC1Cc2cc(/C=C3/SC(=S)NC3=O)ccc2O1` (stereo not given), the kinetic solubility was 9.3 µg/mL (≈ 33.5 µM). Compound `COc1ccc2c(c1)c(C(=O)CN1CCc3ccccc3C1)c(C)n2C` came in with a solubility (kinetic) of 29.6 µg/mL (≈ 84.9 µM). As for `N/C(=N\OC(=O)Cc1cccs1)c1ccc(Cl)cc1`, the figure is 5.8 µg/mL (≈ 19.7 µM); as for `CCC(NC(=S)NC1CCCCC1)c1ccc(C(C)C)cc1` (stereo not given), 1.6 µg/mL (≈ 5.02 µM).

Take `O=S(=O)(c1ccc(Br)c2ccccc12)N1CCOCC1`: the solubility (kinetic) was found to be 17.4 µg/mL (≈ 48.8 µM). As for `COc1ccc(CNC(=O)COC(=O)/C=C/c2ccc(Cl)cc2)cc1`, the figure is below 0.8 µg/mL; as for `Cc1ccnc(NC2CCCCC2)c1`, 25.3 µg/mL (≈ 133 µM); as for `CC(C)(CC(=O)O)CC(=O)N1CCN(c2nc3cc(Cl)ccc3s2)CC1`, above 59.4 µg/mL. As for `CC(=O)NC1(c2ccccc2)CCN(CC(=O)N2CCC(C)CC2)CC1`, the figure is above 53.6 µg/mL; as for `CCOc1ccc(C(=O)OC(C)C(=O)N2CCN(Cc3ccccc3)CC2)cc1` (stereo not given), above 59.5 µg/mL. Compound `CCN1C(=O)c2cccc3c(N)ccc1c23` showed a kinetic solubility above 31.8 µg/mL.

As to `O=C(/C=C/c1ccccc1)Oc1ccccc1C(=S)N1CCOCC1`, the solubility (kinetic) was found to be 18.9 µg/mL (≈ 53.5 µM). As to `CSc1ccc(NC(=O)/C=C/C(=O)O)cc1`, the solubility (kinetic) turned out to be 30.8 µg/mL (≈ 130 µM). Compound `CNC(=O)COC(=O)c1ccccc1NC(=O)c1ccco1` gave a kinetic solubility above 45.3 µg/mL.

For `Cc1ccc2cccc(OCC(=O)N3CCc4ccccc43)c2n1`, the solubility (kinetic) was below 0.3 µg/mL. `Cc1ccc(NC(=O)C2CCCCC2C(=O)O)cc1Cl` (stereo not given) displayed a kinetic solubility above 44.4 µg/mL. As for `COC(=O)c1sc(C(C)(C)C)cc1CS(=O)(=O)c1ccccn1`, the kinetic solubility is 45.2 µg/mL (≈ 128 µM). `CCOC(=O)C1CCN(C(=O)COC(=O)c2c(C)c(CC)nc3ccccc23)CC1`: the solubility (kinetic) was determined as 20.3 µg/mL (≈ 49.2 µM). Regarding `O=C(NCc1ccccc1F)C12CC3CC(CC(C3)C1)C2`, the kinetic solubility amounted to 1 µg/mL (≈ 3.48 µM). Compound `COC(=O)c1sc(NC(=O)c2cc(C)on2)nc1C` came in with a solubility (kinetic) of 35.5 µg/mL (≈ 126 µM). As for `O=C(CNC(=O)c1cccc(F)c1)N/N=C/c1cccnc1`, the kinetic solubility was above 45 µg/mL.

`CSc1ccc(S(=O)(=O)NCCCn2ccnc2)cc1` yielded a kinetic solubility above 46.7 µg/mL. As for `O=[N+]([O-])c1cccc(-c2ccc(CN3CCN(c4ccccc4)CC3)o2)c1`, the figure is 1.4 µg/mL (≈ 3.85 µM); as for `Cc1cc(=O)oc2cc(NC(=S)NCc3cccnc3)ccc12`, 8.9 µg/mL (≈ 27.4 µM). As for `CCOC(=O)C1=C(C)NC(=O)CC1c1cc2c(cc1[N+](=O)[O-])OCO2` (stereo not given), the figure is 3.3 µg/mL (≈ 9.47 µM); as for `O=C(O)c1ccc2c(c1)C(=O)N(c1nccs1)C2=O`, above 41.1 µg/mL; as for `O=c1[nH]c(Cc2ccccc2)nc2ccccc12`, 2.5 µg/mL (≈ 10.6 µM). As for `Cc1nc(NCCc2ccccc2)sc1C(=O)O`, the figure is 38.7 µg/mL (≈ 148 µM); as for `Brc1cnc2nc(SCc3nc4ccccc4[nH]3)[nH]c2c1`, 1.2 µg/mL (≈ 3.33 µM); as for `O=C(O)c1c(Cl)nc2ccccn12`, above 29.5 µg/mL.

`COCCNC(=O)COC(=O)C1=Cc2ccccc2OC1`: the solubility (kinetic) was above 43.7 µg/mL. Compound `COC(=O)c1c(-c2ccc(F)cc2)csc1NC(=O)C1CCCO1` (stereo not given) showed a kinetic solubility of 5.2 µg/mL (≈ 14.9 µM).

As to `Cc1cccc(NC(=S)NCc2ccccc2Cl)c1C`, the solubility (kinetic) is below 0.3 µg/mL.

In the case of `O=C1CSC(c2cccc([N+](=O)[O-])c2)N1CCc1ccccc1` (stereo not given), the solubility (kinetic) stood at 25.8 µg/mL (≈ 78.6 µM). As for `O=c1[nH]c(=S)[nH]c2scc(-c3ccc(Br)cc3)c12`, the figure is 9.1 µg/mL (≈ 26.8 µM); as for `Cc1cc(NC(=O)COc2ccccc2)ccc1Cl`, 1.9 µg/mL (≈ 6.89 µM). As for `Nc1cc(C(F)(F)F)ccc1N1CCOCC1`, the figure is 36.7 µg/mL (≈ 149 µM); as for `Cc1ccc(NC(=O)N2CCCC(c3ccccc3)C2)cc1` (stereo not given), 1.6 µg/mL (≈ 5.43 µM). The compound `O=C(Nc1ccc(Cl)cc1)c1ccco1` yielded a solubility (kinetic) of 30.8 µg/mL (≈ 139 µM). As for `COc1cc(/C=C/C(=O)NC(=O)c2ccccc2O)ccc1O`, the figure is above 47 µg/mL; as for `O=C(Nc1cccc(S(=O)(=O)NC2=NCCC2)c1)c1ccccc1F`, above 54.2 µg/mL. As for `COc1ccc(/C=C/C(=O)NC2CC3CCC2C3)cc1` (stereo not given), the figure is 6.9 µg/mL (≈ 25.4 µM); as for `CC(=O)c1cc(C#N)c(SCc2ccccn2)nc1C`, 10.2 µg/mL (≈ 36 µM); as for `Cc1ccc(NS(=O)(=O)N2CCOCC2)cc1Cl`, above 43.6 µg/mL. In turn, `Cc1cccc(N2CCN(C(=O)c3cccc(S(=O)(=O)N4CCCCC4)c3)CC2)c1C` returned a kinetic solubility of 2.9 µg/mL (≈ 6.57 µM).

These data come from PubChem BioAssay AID1996.
